In ChEMBL document CHEMBL1201862, “PubChem BioAssay data set” (2004):
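Each compound was tested at five concentrations against cells in 96-well plates for 48 hours. GI50 = concentration required for 50% inhibition of growth.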 Active and inactive are the calls of the source. No stated cut-off is given here; in the data, active = GI50 up to about 1.1 µM and inactive = higher.

Key:
Experiment in all cases: growth of human tumour cells (NCI), 48 h
A498 = test system: A498
SNB-19 = test system: SNB-19
HCT-116 = test system: HCT-116
A549 = test system: A549
UACC-257 = test system: UACC-257
HCT-15 = test system: HCT-15
NCI-H522 = test system: NCI-H522
OVCAR-8 = test system: OVCAR-8
ACHN = test system: ACHN
SK-OV-3 = test system: SK-OV-3
RPMI-8226 = test system: RPMI-8226
Hs-578T = test system: Hs-578T
CCRF-CEM = test system: CCRF-CEM
OVCAR-3 = test system: OVCAR-3
SN12C = test system: SN12C
K562 = test system: K562
UO-31 = test system: UO-31
NCI-H226 = test system: NCI-H226
SR = test system: SR

Compound	GI50 (A498)	GI50 (SNB-19)	GI50 (HCT-116)	GI50 (A549)	GI50 (UACC-257)	GI50 (HCT-15) [µM]	GI50 (NCI-H522)	GI50 (OVCAR-8)	GI50 (ACHN)	GI50 (SK-OV-3)	GI50 (RPMI-8226)	GI50 (Hs-578T)	GI50 (CCRF-CEM)	GI50 (OVCAR-3)	GI50 (SN12C)	GI50 (K562)	GI50 (UO-31)	GI50 (NCI-H226)	GI50 (SR)
C=C[C@@H]1C[C@]2(C(=O)OC)Cc3nc4ccccc4nc3CC(C(=O)OC)=C2O1	> 100 µM (inactive)	> 100 µM (inactive)	> 100 µM (inactive)	> 100 µM (inactive)	76.7 µM (inactive)	57.1	64.6 µM (inactive)	> 100 µM (inactive)	> 100 µM (inactive)	> 100 µM (inactive)	34 µM (inactive)	> 100 µM (inactive)	41.8 µM (inactive)	23 µM (inactive)	> 100 µM (inactive)				
O=C(/C=C1\N=C(c2ccccc2)N(c2nc3c(Cl)cc(Cl)cc3s2)C1=O)/C=C/c1ccccc1	67.5 µM (inactive)	> 100 µM (inactive)	97.5 µM (inactive)	> 100 µM (inactive)	> 100 µM (inactive)	73.1	45.1 µM (inactive)	> 100 µM (inactive)	> 100 µM (inactive)	> 100 µM (inactive)	63 µM (inactive)	> 100 µM (inactive)	46.7 µM (inactive)	75.3 µM (inactive)	> 100 µM (inactive)	35 µM (inactive)	> 100 µM (inactive)		
Cc1cc(S(=O)(=O)[N-]C(=C(C#N)C#N)[n+]2ccc(N(C)C)cc2)c(SCC(=O)O)cc1Cl	> 100 µM (inactive)	> 100 µM (inactive)	> 100 µM (inactive)	> 100 µM (inactive)	> 100 µM (inactive)	> 100	45.8 µM (inactive)	> 100 µM (inactive)	> 100 µM (inactive)	> 100 µM (inactive)	> 100 µM (inactive)	> 100 µM (inactive)	> 100 µM (inactive)	> 100 µM (inactive)	> 100 µM (inactive)	> 100 µM (inactive)	> 100 µM (inactive)	> 100 µM (inactive)	
Oc1ccc(-c2nc3ccc(F)cc3s2)cc1		19.3 µM (inactive)	18.2 µM (inactive)	19.8 µM (inactive)	17.1 µM (inactive)	18	13.2 µM (inactive)	19.4 µM (inactive)	19.1 µM (inactive)	18.2 µM (inactive)	35.7 µM (inactive)			30.7 µM (inactive)	18.4 µM (inactive)	29.4 µM (inactive)	15.2 µM (inactive)	18.6 µM (inactive)	26.1 µM (inactive)
CC(=O)OCC1OC(N2C(=O)/C(=C\c3ccc(Cl)cc3)C(N)=Nc3ccccc32)C(OC(C)=O)C(OC(C)=O)C1OC(C)=O (stereo not drawn)	44.6 µM (inactive)	37.8 µM (inactive)	16.6 µM (inactive)	27.8 µM (inactive)	23.4 µM (inactive)	23		13.8 µM (inactive)	20.2 µM (inactive)	51.1 µM (inactive)	2.24 µM (inactive)	28.4 µM (inactive)		15.4 µM (inactive)	29.2 µM (inactive)	12.5 µM (inactive)	20.7 µM (inactive)		16.4 µM (inactive)
C=C(C)C(=O)OC1CC2(C)OC(=CC2=O)C(C)CC2OC(=O)C(=C)C12 (stereo not drawn)	15.2 µM (inactive)	21.4 µM (inactive)	1.75 µM (inactive)	18.9 µM (inactive)	12.3 µM (inactive)	1.65	0.832 µM (active)	8.41 µM (inactive)	2.8 µM (inactive)	34.9 µM (inactive)	3.3 µM (inactive)		0.839 µM (active)	5.15 µM (inactive)	5.85 µM (inactive)	0.656 µM (active)	4.9 µM (inactive)	19.1 µM (inactive)	1.63 µM (inactive)
C[n+]1c(/C=C/c2ccc(/C=N/NC(=O)c3ccc(C(=O)N/N=C/c4ccc(/C=C/c5cn6ccccc6[n+]5C)cc4)cc3)cc2)cn2ccccc21		> 100 µM (inactive)	> 100 µM (inactive)	> 100 µM (inactive)	> 100 µM (inactive)	> 100		> 100 µM (inactive)	> 100 µM (inactive)	> 100 µM (inactive)	> 100 µM (inactive)	> 100 µM (inactive)	20 µM (inactive)	> 100 µM (inactive)	> 100 µM (inactive)		> 100 µM (inactive)		
Cc1ccc(S(=O)(=O)N2CCCSCCN(S(=O)(=O)c3ccc(C)cc3)CCCSCC2)cc1	> 100 µM (inactive)	> 100 µM (inactive)	> 100 µM (inactive)	> 100 µM (inactive)	> 100 µM (inactive)			> 100 µM (inactive)	> 100 µM (inactive)	> 100 µM (inactive)	> 100 µM (inactive)	> 100 µM (inactive)		> 100 µM (inactive)	> 100 µM (inactive)	> 100 µM (inactive)	51.8 µM (inactive)	> 100 µM (inactive)	
NC1CC=C(COC(=O)C(O)(c2ccccc2)C2CC2)CC1 (stereo not drawn)		> 100 µM (inactive)	> 100 µM (inactive)	> 100 µM (inactive)	> 100 µM (inactive)	> 100	> 100 µM (inactive)	> 100 µM (inactive)	> 100 µM (inactive)	> 100 µM (inactive)	> 100 µM (inactive)			> 100 µM (inactive)	> 100 µM (inactive)		> 100 µM (inactive)	> 100 µM (inactive)	> 100 µM (inactive)
OCC1OC(NC(=S)NCSCCC(F)(F)C(F)(F)C(F)(F)C(F)(F)C(F)(F)C(F)(F)F)C(O)C(O)C1O (stereo not drawn)	1.77 µM (inactive)	36.6 µM (inactive)	34.4 µM (inactive)	58.1 µM (inactive)	46.6 µM (inactive)	72.6			35.2 µM (inactive)	82 µM (inactive)	63.8 µM (inactive)	33.5 µM (inactive)	23.3 µM (inactive)	86.9 µM (inactive)	60 µM (inactive)	19.9 µM (inactive)	> 100 µM (inactive)		49.3 µM (inactive)
O=C(CC(=O)Nc1cccc(C(=O)O)c1)Nc1cccc(C(=O)O)c1	> 100 µM (inactive)	> 100 µM (inactive)	> 100 µM (inactive)	> 100 µM (inactive)	> 100 µM (inactive)	> 100	> 100 µM (inactive)	> 100 µM (inactive)	> 100 µM (inactive)		> 100 µM (inactive)	> 100 µM (inactive)	> 100 µM (inactive)	> 100 µM (inactive)	> 100 µM (inactive)	> 100 µM (inactive)	> 100 µM (inactive)	> 100 µM (inactive)	
CS(=O)(=O)c1ccc(/C=N/NC(N)=S)cc1	> 100 µM (inactive)	> 100 µM (inactive)	> 100 µM (inactive)	> 100 µM (inactive)	> 100 µM (inactive)	> 100	> 100 µM (inactive)	> 100 µM (inactive)	> 100 µM (inactive)	> 100 µM (inactive)	> 100 µM (inactive)	> 100 µM (inactive)		> 100 µM (inactive)	> 100 µM (inactive)	> 100 µM (inactive)	> 100 µM (inactive)	> 100 µM (inactive)	
CCN(CC)c1ccc2c(c1)OC(=O)C(c1nnc(-c3ccc([N+](=O)[O-])cc3)o1)C2 (stereo not drawn)	> 100 µM (inactive)	> 100 µM (inactive)	> 100 µM (inactive)	> 100 µM (inactive)	> 100 µM (inactive)	> 100	> 100 µM (inactive)	> 100 µM (inactive)	> 100 µM (inactive)	> 100 µM (inactive)	> 100 µM (inactive)	> 100 µM (inactive)	34.2 µM (inactive)	> 100 µM (inactive)		38 µM (inactive)	> 100 µM (inactive)	> 100 µM (inactive)	
On1c(-c2ccccc2)nc2ccccc2c1=S	42.2 µM (inactive)	12.3 µM (inactive)	2.7 µM (inactive)	2.84 µM (inactive)	54.3 µM (inactive)	1.36		4 µM (inactive)	5.21 µM (inactive)	6.92 µM (inactive)	3.27 µM (inactive)	16.5 µM (inactive)	1.55 µM (inactive)	4.39 µM (inactive)	7.13 µM (inactive)	3.91 µM (inactive)	3.39 µM (inactive)	9.16 µM (inactive)	
CCC(C)(O)c1cnc(CC(C)C)c(=O)n1O (stereo not drawn)	> 100 µM (inactive)	55.8 µM (inactive)	44.9 µM (inactive)	43.9 µM (inactive)	97.3 µM (inactive)	38		34 µM (inactive)	59.7 µM (inactive)	87.5 µM (inactive)	11.5 µM (inactive)	80.7 µM (inactive)	29.2 µM (inactive)	33.8 µM (inactive)	35.1 µM (inactive)	18.5 µM (inactive)	40.1 µM (inactive)		17.2 µM (inactive)
CC(C)(C)C(=O)C(C(=O)c1ccccc1)C(=O)C(C)(C)C	> 100 µM (inactive)	> 100 µM (inactive)	56.1 µM (inactive)	> 100 µM (inactive)	> 100 µM (inactive)	> 100	> 100 µM (inactive)	48.5 µM (inactive)	> 100 µM (inactive)	> 100 µM (inactive)	> 100 µM (inactive)	> 100 µM (inactive)	> 100 µM (inactive)	> 100 µM (inactive)	> 100 µM (inactive)	> 100 µM (inactive)	> 100 µM (inactive)	> 100 µM (inactive)	
